Experimental data: a compilation of properties of binary mixtures (doi:10.1021/je300384g)

Assay: xn = mol fraction of the nth substance listed
Conditions: 101 kPa

CCCCO + CCCC[N+]1(C)CCCC1.N#C[N-]C#N
x1 = 1
Conditions	speed of sound [m/s]
298.15 K	1240
313.15 K	1190
328.15 K	1140

CCCC[N+]1(C)CCCC1.N#C[N-]C#N + CCCO
speed of sound [m/s]
Conditions	298.15 K	313.15 K	328.15 K
x2 = 0	1810	1773	–
x2 = 0.0669	1796	1758	1722
x2 = 0.1894	1766	1728	1690
x2 = 0.2912	–	1695	1657
x2 = 0.3998	1693	–	1615
x2 = 0.514	–	1598	–
x2 = 0.597	1590	1549	1509
x2 = 0.6944	1523	1480	–
x2 = 0.8002	1434	–	1346
x2 = 0.894	1339	1292	1247
x2 = 0.9437	1281	1233	1186

CCCC[N+]1(C)CCCC1.N#C[N-]C#N + CC(C)O
speed of sound [m/s]
Conditions	298.15 K	313.15 K	328.15 K
x2 = 0	1810	1773	1736
x2 = 0.0466	–	1761	1724
x2 = 0.0896	1789	–	1713
x2 = 0.1849	1761	1723	1685
x2 = 0.2967	1723	1684	1646
x2 = 0.4039	1676	1637	1598
x2 = 0.5056	1622	–	1543
x2 = 0.6018	1559	1518	1478
x2 = 0.6997	1483	1440	1398
x2 = 0.8066	1382	–	1293
x2 = 0.892	–	1240	–
x2 = 0.9461	–	1170	1120

CCCC[N+]1(C)CCCC1.N#C[N-]C#N + CCCCO
speed of sound [m/s]
Conditions	298.15 K	313.15 K	328.15 K
x2 = 0	–	–	1736
x2 = 0.0464	1799	1761	1724
x2 = 0.0945	1787	1749	1712
x2 = 0.1898	1759	1720	–
x2 = 0.299	1720	1680	1642
x2 = 0.4012	1674	1635	1596
x2 = 0.4989	1624	1583	1544
x2 = 0.5996	1564	1522	–
x2 = 0.6947	1500	1457	–
x2 = 0.7995	1420	–	1333
x2 = 0.8965	1339	1293	1247
x2 = 0.9464	1295	1246	1199

CC(C)O + CCCC[N+]1(C)CCCC1.N#C[N-]C#N
x1 = 1
Conditions	speed of sound [m/s]
313.15 K	1088
328.15 K	1034

CCCO + CCCC[N+]1(C)CCCC1.N#C[N-]C#N
x1 = 1
Conditions	speed of sound [m/s]
298.15 K	1206
313.15 K	1155
328.15 K	1105
